From patent US8512958B2, “Methods of identifying agents that modulate mitochondrial function” (The J. David Gladstone Institutes, priority 2005, dated 2013)
Entries after “also recorded” stand apart in the source; their conditions may differ.

Assays:
[1] = test system: differentiated PC12 cells; assay: Time-lapse recording of mitochondrial motility and morphology in neurites of differentiated PC12 cells (exogenous agents); details: for mitochondrial motility, increase: nimodipine 5 μM together with AP5 50 μM, with or without apoE forms
[2] = test system: Neuro-2a cells; assay: MTT cell survival assay of Neuro-2a cells transiently transfected with apoE4 cDNA constructs; type: cell-based, mouse; details: expressed in Neuro-2a cells, MTT assay 48 h after transfection
Procedure: Cell Culture and Transfection. […] ApoE4 expression levels were determined by anti-apoE western blotting of cell lysates and media. […] Thus, the results are not due to overexpression.
Cell Survival. […] Cell survival was estimated with an MTT colorimetric assay (52) 48 h after transfection.

[3] = test system: rat primary hippocampal neurons; assay: Dendritic spine density (EGFP-β-actin, confocal microscopy) in primary hippocampal neurons; type: cell-based; details: apoE 7.5 μg/ml, 24 h
Procedure: (§1) Cortices or hippocampi from neonatal rat pups were dissected and treated with papain (10 units ml^−1, 30 min; Worthington Biochemical, Lakewood, N.J.) and the with trypsin inhibitor (10 mg ml^−1, 15 min). Dissociated neurons were plated on 12-mm glass coverslips (Fisher Scientific, Hampton, N.H.) (8×10^5 cells per cm^2) coated with poly-L-lysine. After 2 h, cells were transferred into Neurobasal medium supplemented with B27, 1 mM L-glutamine, and 100 μg/ml penicillin/streptomycin (Invitrogen). Neurons were routinely transfected after 10 days in culture and used for experiments 5-7 days after transfection. Cells were maintained in a humidified incubator with 5% CO2 at 37° C.
(§2) Confocal Microscopy. Cultured primary neurons treated with various forms of apoE were fixed for 20 min in ice-cold 4% paraformaldehyde in PBS and mounted with Vectashield (Vector Laboratories Burlingame, Calif.). Digital images of EGFP and dsRed fluorescence in primary neurons were collected on a laser-scanning confocal microscope with a Bio-Rad Radiance 2000 scanhead (Bio-Rad, Hercules, Calif.) mounted on a BX60 microscope (Olympus, Melville, N.Y.) with a 60× oil objective.
To assess the effect of exogenous apoE on dendritic spine density, rat primary cortical and hippocampal neurons, which had been cultured for 14-17 days in vitro, were incubated with different forms of apoE (7.5 μg/ml) for 24 h. […]

[4] = test system: dendrites of primary cortical neurons; assay: Number, size and occupancy of mitochondria in dendrites of primary cortical neurons; type: cell-based, rat; details: primary neurons treated with apoE
[5] = test system: rat primary cortical neurons; assay: Dendritic spine density (EGFP-β-actin, confocal microscopy) in primary cortical neurons; type: cell-based
Procedure: as §1
Neuronal activation and inhibition.
as §2
To assess the effect of exogenous apoE on dendritic spine density, rat primary cortical and hippocampal neurons, which had been cultured for 14-17 days in vitro, were incubated with different forms of apoE (7.5 μg/ml) for 24 h. Four to six days before the experiment, the cells were transfected with EGFP-tagged β-actin (EGFP-β-actin), a cytoskeletal protein that is abundant in dendritic spines. […] Other measures of neuronal complexity (e.g., dendritic field and length of dendritic extensions) were not affected by any form of apoE. […] FIGS. 12A and 12B. […] (a) Confocal micrographs of synaptic EGFP-β-actin fluorescence in dendrites of rat primary cortical and hippocampal neurons (16 days in vitro) incubated for 24 h with or without (control) various forms of apoE (7.5 μg/ml). Scale bar=5 μm. (b) Number of spines per μm of dendritic extension. […]

[6] = repetitive depolarization with KCl 90 mM, 4×3 min
[7] = cortical neurons, apoE 7.5 μg/ml, 24 h

## NC(CCCP(=O)(O)O)C(=O)O (centres unmarked) [AP5, 2-amino-5-phosphonovalerate]
[1]; 24 h
  mitochondrial motility, increase: about 30%

## [Cl-].[K+] [KCl]
[1]; [6]
  average moving velocity (moving distance/15 min) in the anterograde direction: drastically reduced
  mitochondrial moving velocity (moving distance/time moving): unaltered; also recorded: did not affect
  net moving distance in the anterograde direction: drastically reduced
  retrograde motility (toward the soma): No significant changes
[1]; repetitive depolarizations with KCl (4×, 90 mM)
  mitochondrial index, reduced: 22.5%

## NC1=N[C@H](O)[C@H]2[C@H]3O[C@]4(O)O[C@@H]([C@@H](O)[C@@]2(N1)[C@@H]4O)[C@]3(O)CO [TTX, tetrodotoxin]
[1]
  mitochondrial dynamics: increased
  mitochondrial index: without affecting; also recorded: not affected

## COCCOC(=O)C1=C(C)NC(C)=C(C(=O)OC(C)C)C1c1cccc([N+](=O)[O-])c1 (centres unmarked) [nimodipine]
[1]; 24 h
  mitochondrial motility, increase: about 30%

## L279Q: full-length WT apoE4 with single mutation L279Q
[2]
  neurotoxicity: as neurotoxic as apoE4(1-272)

## Q284A: full-length WT apoE4 with single mutation Q284A
[2]
  neurotoxicity: as neurotoxic as apoE4(1-272)

## apoE4: Human apolipoprotein E4 isoform, 299 amino acids (SEQ ID NO:1); recombinant or expressed
[3]
  density of dendritic spines, decrease compared with controls: 19±5%
  density of dendritic spines, reduction compared with apoE3: 28±4%
[4]
  number of mitochondria at dendritic spines compared with apoE3-treated cells or controls: many fewer
[1]; apoE 7.5 μg/ml 24 h, then repetitive depolarizations with KCl
  extent of the mitochondrial motility response to neuronal activation, reduced to: 30%
[1]; exogenous apoE 7.5 μg/ml, 24 h
  average mitochondrial length: significantly reduced
  retrograde velocity / retrograde direction motility: unaffected
[5]; [7]
  density of dendritic spines, decrease compared with controls: 13±5%
  density of dendritic spines, reduction compared with apoE3: 27±5%
[5]; primary cortical neurons, apoE 7.5 μg/ml 24 h, repetitive KCl depolarization
  spinal density in response to neuronal activation, reduced as compared to controls: 48±11%
